Assay results from US12275733B2, “Substituted pyrido[3,4-b]indoles for the treatment of cartilage disorders” (Sanofi, priority 2016, dated 2025).

Test system: ATDC5 cells
Experiment: Chondrogenesis activity assay in ATDC5 cells (collagen type II induction, immunofluorescence)
Format: cell-based, mouse
Details: Mus musculus; for EC50: collagen type II induction in ATDC5 cells, concentration reaching 50% of maximum induction; for Emax: maximum percent induction of collagen type II relative to internal reference compound at 10 μM, ATDC5 cells
Method: A) Chondrogenesis Activity Assay in ATDC5 Cells
The chondrogenic potential of the compounds of the invention was determined using clonal mouse chondrogenic ATDC5 cells (T. Atsumi et al., Cell Differ. Dev. 1990, 30, 109-116). ATDC5 cells are derived from mouse embryonic AT805 teratocarcinoma cells and are used frequently to study the multistep chondrogenic differentiation process from precursor cells into chondrocytes (C. Shukunami et al., Exp. Cell Res. 1998, 241, 1-11; H. Aklyami et al., J. Bone Miner. Res. 1996, 11, 22-28; H. Akiyami et al., Biochem. Biophys. Res. Commun. 1997, 235, 142-147; C. Shukunami et al., J. Cell Biol. 1996, 133, 457-468; C. Shukunami et al., J. Bone Miner. Res. 1997, 12, 1174-1188). Undifferentiated ATDC5 cells grow in vitro until confluence, showing a fibroblast-like morphology. In the presence of insulin, cells undergo transient condensation and form numerous nodular structures (cartilage nodules). The cartilagenous nature of these nodules was shown by Alcian Blue staining as evidence of the production of proteoglycan (aggrecan) and collagen type II expression (by expression analysis), both molecular markers of chondrocytes (C. Shukunami et al., J. Cell Biol. 1996, 133, 457-468).
Chondrogenic differentiation of ATDC5 cells into chondrocytes by the compounds of the invention was determined by measuring the induction of type II collagen protein as a marker of chondrocytes, a structural component of the extracellular matrix which constitutes more than 80% of cartilage mass (D. R. Eyre, Clin. Orthop. Relat. Res. 2004, 427 Suppl, S118-S122). ATDC5 cells were obtained from RIKEN and cultured as monolayer in basal culture medium (Dulbecco's Modified Eagle Medium/Nutrient Mixture F-12 (DMEM/F12, Invitrogen, #31331-093) supplemented with 10 μg/ml Transferrin (Roche, #10652 202001), 3×10E−8 M sodium seienite (Sigma, #S-5261) and 5% Fetal Calf Serum (FCS Gold, PAA, #A15-251)), at 37° C., and 5% CO2 in plastic flasks of 75 cm^2 or 300 cm^2 subconfluently for propagation. ATDC5 cells were harvested and resuspended in differentiation culture medium that consisted of basal culture medium complemented with 10 μg/ml insulin (Sigma, #19278), to initiate chondrogenic differentiation. For studying the effect of test compounds, the ATDC5 cells were plated in 96-well plates (3.0×10E4 cells per well in 200 μl of differentiation culture medium). Test compounds dissolved in DMSO were added to yield increasing compound concentrations, typically from 40 nM to 10 μM, and a final DMSO concentration of 0.1%. On each 96-well plate, control wells containing no test compound but the same concentration of DMSO, i.e. untreated cells, were included and used as reference for the determination of the effect of the test compounds on the cells, and wells containing an internal reference compound at a concentration of 10 μM were included and used as positive control and for standardizing the results. Cells in the wells were incubated for 4 days at 37° C., and 5% CO2, followed by quantification of intracellular collagen type II.
Quantification of collagen type II in the ATDC5-cells was done by immunofluorescence staining of collagen type II, and fluorescence intensity was measured using a cellular high content imaging system (ImageXpress, Molecular Device). For immunofluorescence staining of intracellular collagen, medium was removed after compound incubation and cells were fixed with 200 μl/well methanol/water (95%/5%). Cells were permeabilized in 200 μl/well phosphate-buffered saline (PBS) containing 0.2% Triton X100 for 15 min and, after removal of the solution, blocked for 30 min with 200 μl/well PBS/0.2% Triton X100 containing 1% bovine serum albumin (BSA) to avoid unspecific binding. After the blocking step, the solution was removed and collagen type II staining solution was added. […]

| EC50 | SMILES | Emax |
| --- | --- | --- |
| 670 nM | CCn1c2c(-c3cnn(CCO)c3)cc(Cl)cc2c2ccnc(C)c21 [Example 44, 2-[4-(6-Chloro-9-ethyl-1-methyl-9H-pyrido[3,4-b]indol-8-yl)-pyrazol-1-yl]-ethanol] | > 80% |
| > 10000 nM | Cc1nccc2c3cc(Cl)cc(-c4ccc(C#N)nc4)c3n(CC3CC3)c12 [Example 47, 5-(6-Chloro-9-cyclopropylmethyl-1-methyl-9H-pyrido[3,4-b]indol-8-yl)-pyridine-2-carbonitrile] | 20 to 50% |
| 41 nM | Cc1cc(-c2cc(Cl)cc3c4ccnc(C)c4n(CC4CC4)c23)cnc1C#N [Example 48, 5-(6-Chloro-9-cyclopropylmethyl-1-methyl-9H-pyrido[3,4-b]indol-8-yl)-3-methyl-pyridine-2-carbonitrile] | < 20% |
| 41 nM | Cc1nccc2c3cc(Cl)cc(-c4cnc5c(c4)OCCN5C)c3n(CC3CC3)c12 [Example 49, 6-Chloro-9-cyclopropymethyl-1-methyl-8-(4-methyl-3,4-dihydro-2H-pyrido[3,2-b][1,4]oxazin-7-yl)-9H-pyrido[3,4-b]indole] | < 20% |
| 130 nM | Cc1nccc2c3cc(Cl)cc(-c4ccc(N5CCCC5)nc4)c3n(CC3CC3)c12 [Example 50, 6-Chloro-9-cyclopropylmethyl-1-methyl-8-(6-pyrrolidin-1-ylpyridin-3-yl)-9H-pyrido[3,4-b]indole] | < 20% |
| > 10000 nM | Cc1nccc2c3cc(Cl)cc(-c4ccc(N5CCN(C)CC5)nc4)c3n(CC3CC3)c12 [Example 51, 6-Chloro-9-cyclopropylmethyl-1-methyl-8-[6-(4-methyl-piperazin-1-yl)-pyridin-3-yl]-pyrido[3,4-b]indole] | < 20% |
| 1200 nM | COc1ccc(-c2cc(Cl)cc3c4ccncc4n(CC4(C)COC4)c23)cc1 [Example 52, 6-Chloro-8-(4-methoxy-phenyl)-9-(3-methyl-oxetan-3-ylmethyl)-9H-pyrido[3,4-b]indole] | 50 to 80% |
| 2100 nM | Nc1ccc(-c2cc(Cl)cc3c4ccncc4n(CC4CC4)c23)c(Cl)n1 [Example 53, 6-Chloro-5-(6-chloro-9-cyclopropylmethyl-9H-pyrido[3,4-b]indol-8-yl)-pyridin-2-ylamine] | 50 to 80% |
| 1100 nM | CCn1c2cnccc2c2cc(Cl)cc(-c3ccc(Cl)nc3)c21 [Example 54, 6-Chloro-8-(6-chloro-pyridin-3-yl)-9-ethyl-9H-pyrido[3,4-b]indole] | 20 to 50% |
| 1500 nM | CCn1c2c(-c3cccnc3Cl)cc(Cl)cc2c2ccnc(C)c21 [Example 58, 6-Chloro-8-(2-chloro-pyridin-3-yl)-9-ethyl-1-methyl-9H-pyrido[3,4-b]indole] | 20 to 50% |
| 1300 nM | CCn1c2c(-c3ccc(Cl)nc3Cl)cc(Cl)cc2c2ccnc(C)c21 [Example 59, 6-Chloro-8-(2,6-dichloro-pyridin-3-yl)-9-ethyl-1-methyl-9H-pyrido[3,4-b]indole] | > 80% |
| 5600 nM | FC(F)(F)Cn1c2cnccc2c2cc(Cl)cc(-c3cnc4ccccc4c3)c21 [Example 61, 6-Chloro-8-quinolin-3-yl-9-(2,2,2-trifluoro-ethyl)-9H-pyrido[3,4-b]indole] | > 80% |
| 740 nM | CCn1c2cnccc2c2cc(Cl)cc(-c3ccc(C)nc3)c21 [Example 67, 6-Chloro-9-ethyl-8-(6-methyl-pyridin-3-yl)-9H-pyrido[3,4-b]indole] | 20 to 50% |
| 7600 nM | Cc1ccc(-c2cc(Cl)cc3c4ccncc4n(CC(F)(F)F)c23)cn1 [Example 68, 6-Chloro-8-(6-methyl-pyridin-3-yl)-9-(2,2,2-trifluoro-ethyl)-9H-pyrido[3,4-b]indole] | 50 to 80% |
| 570 nM | CCn1c2cnccc2c2cc(Cl)cc(-c3ccc(OC)nc3)c21 [Example 70, 6-Chloro-9-ethyl-8-(6-methoxy-pyridin-3-yl)-9H-pyrido[3,4-b]indole] | > 80% |
| 1500 nM | FC(F)(F)Cn1c2cnccc2c2cc(Cl)cc(-c3cnc4[nH]ccc4c3)c21 [Example 71, 6-Chloro-8-(1H-pyrrolo[2,3-b]pyridin-5-yl)-9-(2,2,2-trifluoro-ethyl)-9H-pyrido[3,4-b]indole] | < 20% |

Further lines, the compound ahead of its results:

| SMILES | EC50 | Emax |
| --- | --- | --- |
| CCn1c2cnccc2c2cc(Cl)cc(-c3cccnc3Cl)c21 [Example 56, 6-Chloro-8-(2-chloro-pyridin-3-yl)-9-ethyl-9H-pyrido[3,4-b]indole] | 460 nM | 20 to 50% |
| FC(F)(F)Cn1c2cnccc2c2cc(Cl)cc(-c3cccnc3)c21 [Example 57, 6-Chloro-8-pyridin-3-yl-9-(2,2,2-trifluoro-ethyl)-9H-pyrido[3,4-b]indole] | 1600 nM | < 20% |
| N#Cc1ccc(-c2cc(Cl)cc3c4ccncc4n(CC(F)(F)F)c23)cn1 [Example 60, 5-[6-Chloro-9-(2,2,2-trifluoro-ethyl)-9H-pyrido[3,4-b]indol-8-yl]-pyridine-2-carbonitrile] | 2500 nM | 20 to 50% |
| COc1ccc(-c2cc(Cl)cc3c4ccncc4n(CC(F)(F)F)c23)cn1 [Example 62, 6-Chloro-8-(6-methoxy-pyridin-3-yl)-9-(2,2,2-trifluoro-ethyl)-9H-pyrido[3,4-b]indole] | 1200 nM | > 80% |
| Fc1ccc(-c2cc(Cl)cc3c4ccncc4n(CC(F)(F)F)c23)c(F)n1 [Example 63, 6-Chloro-8-(2,6-difluoro-pyridin-3-yl)-9-(2,2,2-trifluoro-ethyl)-9H-pyrido[3,4-b]indole] | 590 nM | 20 to 50% |
| Cc1nccc2c1[nH]c1c(-c3ccc(Cl)nc3Cl)cc(Cl)cc12 [Example 64, 6-Chloro-8-(2,6-dichloro-pyridin-3-yl)-1-methyl-9H-pyrido[3,4-b]indole] | 3900 nM | > 80% |
| Cc1nccc2c1[nH]c1c(-c3cccnc3)cc(Cl)cc12 [Example 65, 6-Chloro-1-methyl-8-pyridin-3-yl-9H-pyrido[3,4-b]indole] | 2300 nM | 20 to 50% |
| FC(F)(F)Cn1c2cnccc2c2cc(Cl)cc(-c3ccc(Cl)nc3)c21 [Example 66, 6-Chloro-8-(6-chloro-pyridin-3-yl)-9-(2,2,2-trifluoro-ethyl)-9H-pyrido[3,4-b]indole] | 2100 nM | 50 to 80% |
| FC(F)(F)Cn1c2cnccc2c2cc(Cl)cc(-c3cnccc3Cl)c21 [Example 69, 6-Chloro-8-(4-chloro-pyridin-3-yl)-9-(2,2,2-trifluoro-ethyl)-9H-pyrido[3,4-b]indole] | 2000 nM | 50 to 80% |
| COc1ccc(-c2cc(Cl)cc3c2[nH]c2cnccc23)cn1 [Example 72, 6-Chloro-8-(6-methoxy-pyridin-3-yl)-9H-pyrido[3,4-b]indole] | 5800 nM | 20 to 50% |
| Clc1cc(-c2ccc(Cl)nc2)c2[nH]c3cnccc3c2c1 [Example 73, 6-Chloro-8-(6-chloro-pyridin-3-yl)-9H-pyrido[3,4-b]indole] | 440 nM | 20 to 50% |
| Clc1cc(-c2ccc(Cl)nc2Cl)c2[nH]c3cnccc3c2c1 [Example 74, 6-Chloro-8-(2,6-dichloro-pyridin-3-yl)-9H-pyrido[3,4-b]indole] | 920 nM | 20 to 50% |
| FC(F)(F)Cn1c2cnccc2c2cc(Cl)cc(-c3csc(Cl)c3)c21 [Example 76, 6-Chloro-8-(5-chloro-thiophen-3-yl)-9-(2,2,2-trifluoro-ethyl)-9H-pyrido[3,4-b]indole] |  | 20 to 50% |
